This is an account of results in article PMC7377239, “Cardiovascular Effects of Polychlorinated Biphenyls and Their Major Metabolites” (Environmental Health Perspectives, 2020).

Where two headings read alike, the source gives them in different places.

For data set [1], the system named is iCell cardiomyocytes (human iPSC-derived cardiomyocytes). The data set can be described thus: High-content imaging of cytotoxicity and mitochondrial integrity in iPSC-CMs. As to conditions: for minimal effective concentration: Homo sapiens, Cardiomyocyte, cardiomyocytes (cm). Type of data set: cell-based. In outline: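 Readouts from high-content images were normalized to vehicle controls containing 0.5% vol/vol DMSO. They were fit to a four-parameter logistic model in R. Points of departure were set using a cutoff of one standard deviation across vehicle control means. Where no concentration–response was seen, the top tested concentration of 100μM was assigned as the no observable adverse effect level.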

The subject of another data set is HUVECs. Description: High-content imaging cytotoxicity in HUVECs, 24 h. As to conditions: Homo sapiens, HUVEC, 24 h, HUVEC, 24 hr. Type of data set: cell-based, human. In outline: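 HUVECs (passages 1–5) were plated at 750 cells/well without fibronectin, grown to a monolayer (3–5 d) and exposed to compounds for 24 h at 37°C, 5% CO2. Hoechst 33342, MitoTracker Orange and calcein AM staining was imaged at 10×; readouts were normalized to 0.5% DMSO vehicle and fit to a four-parameter logistic model.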

The mark [2] stands for this setting: 1.5 h, cam, 90 min, read-out: POD cm.cam.90min.
[3] abbreviates: 1.5 h, mii, 90 min, read-out: POD cm.mii.90min.
Where [4] appears, read: 1.5 h, mito, 90 min, read-out: POD cm.mito.90min.
[5] abbreviates: 1.5 h, tc, 90 min, read-out: POD cm.tc.90min.
Setting [6] is: 24 h, cam, 24 hrs, read-out: POD cm.cam.24hrs.
[7] abbreviates: 24 h, mii, 24 hrs, read-out: POD cm.mii.24hrs.
The mark [8] stands for this setting: 24 h, mito, 24 hrs, read-out: POD cm.mito.24hrs.
Where [9] appears, read: 24 h, tc, 24 hrs, read-out: POD cm.tc.24hrs.
Setting [10] is: cyto, read-out: POD huvec.cyto.24hr.
The mark [11] stands for this setting: mito, read-out: POD huvec.mito.24hr.
The mark [12] stands for this setting: mitoint, read-out: POD huvec.mitoint.24hr.
The mark [13] stands for this setting: nma, read-out: POD huvec.nma.24hr.
The mark [14] stands for this setting: tc, read-out: POD huvec.tc.24hr.

With `Clc1ccc(-c2ccccc2)cc1` [PCB 3, 4-chlorobiphenyl], the minimal effective concentration in data set [1] (setting [2]) was found to be 24.9 µM; in data set [1] (setting [3]), 6.86 µM; in data set [1] (setting [4]) it was 21.2 µM; in data set [1] (setting [5]), 20 µM; in data set [1] (setting [6]), 7.4 µM; in data set [1] (setting [7]) it was 10.9 µM. In addition, the minimal effective concentration in data set [1] (setting [8]) amounted to 6.67 µM; in data set [1] (setting [9]), 6.97 µM; with HUVECs (setting [10]), 100 µM; in the data set on HUVECs (setting [11]) it was 100 µM; with HUVECs (setting [12]), 100 µM; with HUVECs (setting [13]), 100 µM. Further, the minimal effective concentration in the data set on HUVECs (setting [14]) was found to be 100 µM.
Regarding `Clc1cccc(-c2cccc(Cl)c2)c1` [PCB 11, 3,3′-Dichlorobiphenyl], the minimal effective concentration in data set [1] (setting [2]) was 18.6 µM; in data set [1] (setting [3]) it was 12.4 µM; in data set [1] (setting [4]), 14.2 µM; in data set [1] (setting [5]), 16.7 µM; in data set [1] (setting [6]), 35.2 µM; in data set [1] (setting [7]), 9.6 µM. Also, the minimal effective concentration in data set [1] (setting [8]) was 33.1 µM; in data set [1] (setting [9]) it was 35.1 µM; in the data set on HUVECs (setting [10]) it was 11.2 µM; with HUVECs (setting [11]), 9.68 µM; with HUVECs (setting [12]) it was 7.62 µM; in the data set with HUVECs (setting [13]) it was 9.3 µM. Also, the minimal effective concentration in the data set on HUVECs (setting [14]) was determined as 11.2 µM.
Take `Clc1ccc(Cl)c(-c2cc(Cl)ccc2Cl)c1` [PCB 52, 2,2′,5,5′-tetrachlorobiphenyl]: the minimal effective concentration in data set [1] (setting [2]) turned out to be 36 µM; in data set [1] (setting [3]), 10.4 µM; in data set [1] (setting [4]), 39.2 µM; in data set [1] (setting [5]), 38.9 µM; in data set [1] (setting [6]), 7.5 µM; in data set [1] (setting [7]), 34.4 µM. Also, the minimal effective concentration in data set [1] (setting [8]) was found to be 7.32 µM; in data set [1] (setting [9]), 8.11 µM; with HUVECs (setting [10]), 0.67 µM; in the data set with HUVECs (setting [11]), 0.57 µM; in the data set with HUVECs (setting [12]) it was 6.01 µM; in the data set on HUVECs (setting [13]), 4.97 µM. In addition, the minimal effective concentration with HUVECs (setting [14]) stood at 0.67 µM.
In the case of `Clc1ccc(Cl)c(-c2c(Cl)ccc(Cl)c2Cl)c1` [PCB 95, 2,2′,3,5′,6-pentachlorobiphenyl], the minimal effective concentration was 36.6 µM in data set [1] (setting [2]); 100 µM in data set [1] (setting [3]); 39.6 µM in data set [1] (setting [4]); 38.7 µM in data set [1] (setting [5]); 8.98 µM in data set [1] (setting [6]); 22.2 µM in data set [1] (setting [7]). Further, the minimal effective concentration in data set [1] (setting [8]) stood at 8.96 µM; in data set [1] (setting [9]) it was 8.75 µM; in the data set on HUVECs (setting [10]), 0.01 µM; with HUVECs (setting [11]) it was 0.022 µM; in the data set with HUVECs (setting [12]), 7.41 µM; in the data set on HUVECs (setting [13]), 1.93 µM. In addition, the minimal effective concentration in the data set on HUVECs (setting [14]) amounted to 0.01 µM.
For the compound `Clc1ccc(-c2cc(Cl)c(Cl)c(Cl)c2)cc1Cl` [PCB 126, 3,3′,4,4′,5-pentachlorobiphenyl], the minimal effective concentration in data set [1] (setting [2]) stood at 100 µM; in data set [1] (setting [3]), 100 µM; in data set [1] (setting [4]) it was 100 µM; in data set [1] (setting [5]) it was 100 µM; in data set [1] (setting [6]), 7.03 µM; in data set [1] (setting [7]) it was 100 µM. The minimal effective concentration was 7.54 µM in data set [1] (setting [8]); 6.48 µM in data set [1] (setting [9]); 5.33 µM in the data set with HUVECs (setting [10]); 100 µM in the data set on HUVECs (setting [11]); 100 µM in the data set with HUVECs (setting [12]); 100 µM in the data set with HUVECs (setting [13]). The minimal effective concentration in the data set on HUVECs (setting [14]) was 5.33 µM. Moreover, in data set [1] (iPSC-CMs, 0.01-100 μM, 90 min and 24 h), the “effect on cell viability in iPSC-CMs” value is given as “little effect on cell viability”.
Consider `Clc1cc(Cl)c(-c2cc(Cl)c(Cl)cc2Cl)cc1Cl` [PCB 153, 2,2′,4,4′,5,5′-hexachlorobiphenyl], for which the minimal effective concentration in data set [1] (setting [2]) worked out at 20.6 µM; in data set [1] (setting [3]), 100 µM; in data set [1] (setting [4]), 19.8 µM; in data set [1] (setting [5]), 23.2 µM; in data set [1] (setting [6]), 11.6 µM; in data set [1] (setting [7]), 39.9 µM. Besides, the minimal effective concentration in data set [1] (setting [8]) stood at 10.5 µM; in data set [1] (setting [9]), 11.1 µM; with HUVECs (setting [10]), 0.0171 µM; in the data set with HUVECs (setting [11]), 0.75 µM; in the data set with HUVECs (setting [12]), 0.83 µM; in the data set on HUVECs (setting [13]), 1.01 µM. Also, the minimal effective concentration in the data set on HUVECs (setting [14]) was 0.0171 µM.
